Laboratory results reported in patent US9969723B2, “3-(4-(benzyloxy)phenyl)hex-4-ynoic acid derivative, method of preparing same and pharmaceutical composition for preventing and treating metabolic disease including same as effective ingredient” (HYUNDAI PHARM CO., LTD, priority 2014, dated 2018).
pEC50: −log10 of the molar value.

How the values were obtained:
CYP2C19 = CYP2C19 (Homo sapiens (Human), UniProt P33261); assay: CYP inhibition (BD GENTEST kit); format: in vitro ADME; conditions: CYP2C19 enzyme of the BD GENTEST CYP2C19 inhibition kit, pH 7.4, read-out: CYP inhibition (%) 2C19
Experimental: (§1) CYP is the enzyme involved in drug metabolism. So, the inhibition of this enzyme can change the prediction of dose of a drug and toxicity caused by the co-treatment with other drugs. Therefore, the inventors measured the inhibitory effect of the compounds of Examples of the invention on endogenous CYP3A4, CYP2C9, CYP1A2, CYP2D6, and CYP2C19. […] To prepare the Invitrogen kit, the test sample was diluted in distilled water at 2.5× of the final experimental concentration.
(§2) The test sample for BD GENTEST kit was diluted in acetonitrile at 50× of the final experimental concentration. NADPH-coenzyme mixture was prepared by diluting the coenzyme, G6PDH, and regulatory protein included in the kit with distilled water at the concentration instructed by the kit. The prepared 50× sample (4 μL) and the NADPH-coenzyme mixture (96 μL) were mixed in each well of U-bottom 96-well plate, followed by pre-culture for 10 minutes in a 37° C. incubator. Enzyme/substrate mixed solution was prepared by diluting the buffer (0.5 M potassium phosphate, pH 7.4), each CYP450 enzyme/substrate mixed solution included in the kit with distilled water at the instructed concentration. Upon completion of the pre-culture, 100 μL of the enzyme/substrate mixed solution was added in each well of the plate, followed by culture in a 37° C. incubator for 15 minutes (CYP 1A2), 30 minutes (CYP 3A4 and CYP 2C19) or 1 and half hours (CYP 2C9). […] The values obtained above were converted into % as the inhibition rate of the sample by the value of the non-treated group.

CYP2C9 = CYP2C9 (Homo sapiens (Human), UniProt P11712); assay: CYP inhibition (BD GENTEST kit); format: in vitro ADME; conditions: CYP2C9 enzyme of the BD GENTEST CYP2C9 inhibition kit, pH 7.4, read-out: CYP inhibition (%) 2C9
Experimental: as §1, §2

CYP2D6 = CYP2D6 (Homo sapiens (Human), UniProt P10635); assay: CYP inhibition (Invitrogen Vivid kit); format: in vitro ADME; conditions: CYP2D6 P450 BACULOSOMES reagent (Invitrogen kit P2862), probe Vivid CYP450 substrate, read-out: CYP inhibition (%) 2D6
Excerpt: (§3) CYP is the enzyme involved in drug metabolism. So, the inhibition of this enzyme can change the prediction of dose of a drug and toxicity caused by the co-treatment with other drugs. Therefore, the inventors measured the inhibitory effect of the compounds of Examples of the invention on endogenous CYP3A4, CYP2C9, CYP1A2, CYP2D6, and CYP2C19. At this time, Invitrogen (P2862) was used as the CYP2D6 inhibition kit, and BD GENTEST (459100, 459300, 459400, 459500) was used as the CYP1A2, CYP2C9, CYP2C19, and CYP3A4 inhibition kit. To prepare the Invitrogen kit, the test sample was diluted in distilled water at 2.5× of the final experimental concentration.
P450 BACULOSOMES® reagent and reproducer (100×) included in Invitrogen kit were diluted in Vivid® CYP450 reaction buffer (2×) at the concentration that matched the target CYP450. The prepared 2.5× sample (80 μL) and the diluted P450 BACULOSOMES® reagent mixture (100 μL) were mixed in each well of U-bottom 96-well plate, followed by pre-culture for 20 minutes. Vivid® CYP450 substrate and NADP+ (100×) were diluted in Vivid® CYP450 reaction buffer (2×) at the concentration that matched the target CYP450 and the substrate. Upon completion of the pre-culture, substrate-NADP (nicotinamide adenine dinucleotide phosphate) mixed solution (20 μL) was added thereto, followed by reaction for 1 hour. Upon completion of the reaction, the reactant was transferred onto the white plate, and then fluorescence was measured with a microplate reader (CYP 2D6 excitation wavelength: 400 nm, absorption wavelength: 502 nm). […]

CYP3A4 = CYP3A4 (Homo sapiens (Human), UniProt P08684); assay: CYP inhibition (BD GENTEST kit); format: in vitro ADME; conditions: CYP3A4 enzyme of the BD GENTEST CYP3A4 inhibition kit, pH 7.4, read-out: CYP inhibition (%) 3A4
Excerpt: as §3
The test sample for BD GENTEST kit was diluted in acetonitrile at 50× of the final experimental concentration. NADPH-coenzyme mixture was prepared by diluting the coenzyme, G6PDH, and regulatory protein included in the kit with distilled water at the concentration instructed by the kit. The prepared 50× sample (4 μL) and the NADPH-coenzyme mixture (96 μL) were mixed in each well of U-bottom 96-well plate, followed by pre-culture for 10 minutes in a 37° C. incubator. Enzyme/substrate mixed solution was prepared by diluting the buffer (0.5 M potassium phosphate, pH 7.4), each CYP450 enzyme/substrate mixed solution included in the kit with distilled water at the instructed concentration. Upon completion of the pre-culture, 100 μL of the enzyme/substrate mixed solution was added in each well of the plate, followed by culture in a 37° C. incubator for 15 minutes (CYP 1A2), 30 minutes (CYP 3A4 and CYP 2C19) or 1 and half hours (CYP 2C9). Upon completion of the reaction, the reactant was transferred onto the white plate, and then fluorescence was measured with a microplate reader (CYP 1A2 and CYP 2C19 excitation wavelength: 410 nm, absorption wavelength: 460 nm; CYP 2C9 and CYP 3A4 excitation wavelength: 409 nm, absorption wavelength: 530 nm). The values obtained above were converted into % as the inhibition rate of the sample by the value of the non-treated group.

[1] = tested on: Male Goto-Kakizaki (GK) rats, the type II diabetes animal model (not obesity); assay: Oral glucose tolerance test (OGTT) 2; format: in vivo, rat
Experimental: (§4) Male Goto-Kakizaki (GK) rats at 22˜23 weeks, the type II diabetes animal model (not obesity), were adapted at least for 7 days. Only healthy animals were selected thereafter, followed by OGTT. After fasting for 16˜18 hours, 5 rats per group were randomly selected and orally administered with the compounds prepared in Examples 5, 9, 14, 28, 37, and 47 at the dose of 0.3˜10 mg/kg. At this time, 5% polyethyleneglycol (PEG) was orally administered at the same dose to the non-treated group rats. 60 minutes after the sample administration, glucose (4 g/kg) was orally administered thereto at the dose of 5 ml/kg. Then, blood glucose was measured by using Accu-chek active strip (Roche diagnostic Co.). The time for the measurement was set at 60 minutes before the glucose administration (−60), 0 minute, 20 minutes, 40 minutes, 60 minutes, and 120 minutes after the glucose administration, and blood glucose was measured through tail vein puncture.

[2] = tested on: Male OLETF (Otsuka Long-Evans Tokushima fatty) rats, the type II diabetes animal model (obesity); assay: Oral glucose tolerance test (OGTT) 3; format: in vivo, rat
Experimental: as §4, with “OLETF (Otsuka Long-Evans Tokushima fatty)” for “Goto-Kakizaki (GK)”, “29˜30” for “22˜23”, “(obesity),” for “(not obesity),”, “1˜10” for “0.3˜10”

GPR40 = GPR40 (Homo sapiens (Human), UniProt O14842); assay: Calcium flux GPCR agonist assay (Millipore GPCR profiler, FLIPR TETRA)
Experimental: The compounds of Examples of the invention dissolved in DMSO (dimethyl sulfoxide), PBS (phosphate buffered saline), and DW (distilled water), etc, were diluted three-times with EMD Millipore's GPCR profiler assay buffer. […] Each well was filled with EMD Millipore's GPCR profiler assay buffer. The said EMD Millipore's GPCR profiler assay buffer was HBSS (Hanks Balanced Salt Solution) containing 20 mM HEPES (4-(2-hydroxyethyl)-1-piperazineethanesulfonic acid) and 2.5 mM Probenecid (4-(dipropylsulfamoyl)benzoic acid), whose pH was regulated as 7.4.
The compounds of Examples were duplicated at each concentration. […] Agonist assay was performed by using FLIPR^TETRA. Fluorescence and luminescence baseline were measured. […] To measure the activity of those compounds of Examples, GPCR activity assay was performed for 180 seconds.
When the assay data were not satisfactory, an additional experiment was performed.
All the concentration dependent graphs were made by using GraphPad Prism. The graph was modified by Sigmoidal dose response.

[3] = oral dose 10 mg/kg, values in text

CYP2C9, sequence (P11712 whole entry): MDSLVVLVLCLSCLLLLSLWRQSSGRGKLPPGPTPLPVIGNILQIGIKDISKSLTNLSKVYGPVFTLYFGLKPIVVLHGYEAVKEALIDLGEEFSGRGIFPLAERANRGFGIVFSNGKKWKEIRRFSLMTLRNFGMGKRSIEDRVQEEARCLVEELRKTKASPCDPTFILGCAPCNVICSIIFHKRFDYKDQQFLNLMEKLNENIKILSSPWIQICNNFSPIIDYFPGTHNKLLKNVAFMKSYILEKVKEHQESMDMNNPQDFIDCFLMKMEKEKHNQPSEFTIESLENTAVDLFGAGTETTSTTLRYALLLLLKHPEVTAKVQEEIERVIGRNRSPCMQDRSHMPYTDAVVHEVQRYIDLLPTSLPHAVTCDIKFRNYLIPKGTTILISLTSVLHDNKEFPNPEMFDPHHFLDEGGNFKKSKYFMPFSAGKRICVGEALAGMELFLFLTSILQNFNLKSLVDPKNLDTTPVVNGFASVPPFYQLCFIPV
CYP2D6, sequence (P10635 whole entry): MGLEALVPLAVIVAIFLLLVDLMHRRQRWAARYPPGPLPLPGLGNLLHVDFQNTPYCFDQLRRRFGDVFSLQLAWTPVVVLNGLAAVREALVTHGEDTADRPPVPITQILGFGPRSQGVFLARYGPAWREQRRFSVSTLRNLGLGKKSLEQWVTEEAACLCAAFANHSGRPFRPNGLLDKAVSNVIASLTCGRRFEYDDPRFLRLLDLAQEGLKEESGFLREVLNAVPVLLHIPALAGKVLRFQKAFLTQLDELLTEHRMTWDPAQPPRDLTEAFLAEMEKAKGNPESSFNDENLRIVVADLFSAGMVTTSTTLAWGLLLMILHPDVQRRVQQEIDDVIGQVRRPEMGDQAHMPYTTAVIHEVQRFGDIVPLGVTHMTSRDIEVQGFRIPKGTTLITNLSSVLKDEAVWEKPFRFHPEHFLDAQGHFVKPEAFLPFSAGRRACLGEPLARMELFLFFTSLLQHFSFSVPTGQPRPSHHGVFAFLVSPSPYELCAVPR
CYP3A4, sequence (P08684 whole entry): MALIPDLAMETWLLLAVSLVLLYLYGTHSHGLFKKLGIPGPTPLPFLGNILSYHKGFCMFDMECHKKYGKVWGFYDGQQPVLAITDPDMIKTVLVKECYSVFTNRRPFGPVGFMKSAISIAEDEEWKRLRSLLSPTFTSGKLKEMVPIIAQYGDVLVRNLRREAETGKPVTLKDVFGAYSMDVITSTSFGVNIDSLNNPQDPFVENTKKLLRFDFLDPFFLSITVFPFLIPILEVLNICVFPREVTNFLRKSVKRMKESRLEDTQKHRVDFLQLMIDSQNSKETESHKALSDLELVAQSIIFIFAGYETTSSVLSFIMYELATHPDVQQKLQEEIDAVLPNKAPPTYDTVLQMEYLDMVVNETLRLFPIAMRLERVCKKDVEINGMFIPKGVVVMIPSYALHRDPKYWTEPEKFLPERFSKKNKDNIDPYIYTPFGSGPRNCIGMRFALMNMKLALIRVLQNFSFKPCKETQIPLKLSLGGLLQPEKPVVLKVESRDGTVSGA
GPR40, sequence (O14842 whole entry): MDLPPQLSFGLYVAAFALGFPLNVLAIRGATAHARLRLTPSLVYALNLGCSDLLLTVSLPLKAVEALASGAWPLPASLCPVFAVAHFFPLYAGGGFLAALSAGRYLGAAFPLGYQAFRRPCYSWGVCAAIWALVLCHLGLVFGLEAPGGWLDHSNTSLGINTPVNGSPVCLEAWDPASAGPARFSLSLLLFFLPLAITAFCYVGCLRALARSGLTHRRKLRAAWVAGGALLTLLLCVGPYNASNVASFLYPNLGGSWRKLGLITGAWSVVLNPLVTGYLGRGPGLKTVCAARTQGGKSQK
CYP2C19, sequence (P33261 whole entry): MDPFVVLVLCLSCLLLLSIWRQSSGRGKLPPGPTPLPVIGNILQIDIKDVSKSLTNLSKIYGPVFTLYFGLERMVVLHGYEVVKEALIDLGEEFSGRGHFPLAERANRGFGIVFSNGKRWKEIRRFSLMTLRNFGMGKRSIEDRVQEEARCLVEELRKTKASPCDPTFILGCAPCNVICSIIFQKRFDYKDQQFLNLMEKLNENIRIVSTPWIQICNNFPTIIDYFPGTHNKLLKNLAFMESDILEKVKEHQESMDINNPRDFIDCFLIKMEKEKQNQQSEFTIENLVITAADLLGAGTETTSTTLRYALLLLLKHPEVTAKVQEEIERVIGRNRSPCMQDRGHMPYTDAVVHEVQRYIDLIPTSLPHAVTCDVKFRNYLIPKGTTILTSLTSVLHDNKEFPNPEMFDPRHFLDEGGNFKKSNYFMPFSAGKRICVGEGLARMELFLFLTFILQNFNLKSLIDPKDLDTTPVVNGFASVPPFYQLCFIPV

inhibition at 30 min, 10 µM (CYP2C19): 3.7% | inhibition at 1.5 h, 10 µM (CYP2C9): 47.1% | inhibition at 1 h, 10 µM (CYP2D6): 13.9% | inhibition at 30 min, 10 µM (CYP3A4): 15.5% | pEC50 (GPR40): > 9.00
SMILES: CC#C[C@@H](CC(=O)O)c1ccc(OCc2cccc(C3=CCC4(CC3)OCCO4)c2)cc1 [Example 9, L-lysine (3S)-3-(4-(3-(1,4-dioxaspiro[4,5]dec-7-en-8-yl)benzyloxy)phenyl)hex-4-ynoate]
% AUC ([1]; oral dose 0.3 mg/kg): C (under 25.0%) | % AUC ([1]; oral dose 1 mg/kg): C (under 25.0%) | % AUC ([1]; oral dose 3 mg/kg): A (over 35.0%) | % AUC ([1]; oral dose 10 mg/kg): A (over 35.0%) | hypoglycemic effect by that of the non-treated group [1, 3]: more than 35.0% | % AUC ([2]; oral dose 1 mg/kg): B (25.0-35.0%) | % AUC ([2]; oral dose 3 mg/kg): A (over 35.0%) | % AUC ([2]; oral dose 10 mg/kg): A (over 35.0%) | hypoglycemic effect compared with the non-treated group [2, 3]: more than 35.0%
